From ChEMBL document CHEMBL3044649, “Zn(OTf)2-catalyzed three component, one-pot cyclocondensation reaction of some new octahydroquinazolinone derivatives and access their bio-potential” (2012)
Values after ≈ are worked out from the molar mass of the structure shown.

System: Aspergillus fumigatus
Assay: Antimicrobial activity against Aspergillus fumigatus MTCC 3008 after 24 to 48 hr by broth microdilution method
Assay type: functional

Structure (SMILES) | MIC
COC1=CC(=O)C[C@@H](C)[C@]12Oc1c(Cl)c(OC)cc(OC)c1C2=O [GRISEOFULVIN] | 100 µg/mL (≈ 283 µM)
Cc1ccc2[nH]c(=O)c(C3NC(=O)NC4=C3C(=O)CCC4)cc2c1 (stereo not given) | 1000 µg/mL (≈ 3090 µM)
O=C1NC2=C(C(=O)CCC2)C(c2cc3ccccc3[nH]c2=O)N1 (stereo not given) | > 1000 µg/mL
COc1ccc2[nH]c(=O)c(C3NC(=O)NC4=C3C(=O)CCC4)cc2c1 (stereo not given) | 1000 µg/mL (≈ 2950 µM)
CC1(C)CC(=O)C2=C(C1)N(c1ccccc1)C(=S)NC2c1cc2ccccc2[nH]c1=O (stereo not given) | 1000 µg/mL (≈ 2330 µM)
CC1(C)CC(=O)C2=C(C1)NC(=O)NC2c1cc2ccccc2[nH]c1=O (stereo not given) | 500 µg/mL (≈ 1480 µM)
COc1ccc2[nH]c(=O)c(C3NC(=S)NC4=C3C(=O)CC(C)(C)C4)cc2c1 (stereo not given) | > 1000 µg/mL

System: Escherichia coli
Assay: Antimicrobial activity against Escherichia coli MTCC 443 after 24 to 48 hr by broth microdilution method
Assay type: functional

Structure (SMILES) | MIC
Cc1ccc2[nH]c(=O)c(C3NC(=O)NC4=C3C(=O)CCC4)cc2c1 (stereo not given) | 500 µg/mL (≈ 1550 µM)
O=C1NC2=C(C(=O)CCC2)C(c2cc3ccccc3[nH]c2=O)N1 (stereo not given) | 250 µg/mL (≈ 808 µM)
COc1ccc2[nH]c(=O)c(C3NC(=O)NC4=C3C(=O)CCC4)cc2c1 (stereo not given) | 100 µg/mL (≈ 295 µM)
CC1(C)CC(=O)C2=C(C1)N(c1ccccc1)C(=S)NC2c1cc2ccccc2[nH]c1=O (stereo not given) | 250 µg/mL (≈ 582 µM)
CC1(C)CC(=O)C2=C(C1)NC(=O)NC2c1cc2ccccc2[nH]c1=O (stereo not given) | 100 µg/mL (≈ 296 µM)
COc1ccc2[nH]c(=O)c(C3NC(=S)NC4=C3C(=O)CC(C)(C)C4)cc2c1 (stereo not given) | 500 µg/mL (≈ 1300 µM)

System: Vibrio cholerae
Assay: Antimicrobial activity against Vibrio cholerae MTCC 3906 after 24 to 48 hr by broth microdilution method
Assay type: functional

Structure (SMILES) | MIC
Cc1ccc2[nH]c(=O)c(C3NC(=O)NC4=C3C(=O)CCC4)cc2c1 (stereo not given) | 200 µg/mL (≈ 619 µM)
O=C1NC2=C(C(=O)CCC2)C(c2cc3ccccc3[nH]c2=O)N1 (stereo not given) | 500 µg/mL (≈ 1620 µM)
COc1ccc2[nH]c(=O)c(C3NC(=O)NC4=C3C(=O)CCC4)cc2c1 (stereo not given) | 500 µg/mL (≈ 1470 µM)
CC1(C)CC(=O)C2=C(C1)N(c1ccccc1)C(=S)NC2c1cc2ccccc2[nH]c1=O (stereo not given) | 500 µg/mL (≈ 1160 µM)
CC1(C)CC(=O)C2=C(C1)NC(=O)NC2c1cc2ccccc2[nH]c1=O (stereo not given) | 250 µg/mL (≈ 741 µM)
COc1ccc2[nH]c(=O)c(C3NC(=S)NC4=C3C(=O)CC(C)(C)C4)cc2c1 (stereo not given) | 200 µg/mL (≈ 522 µM)

System: Clostridium tetani
Assay: Antimicrobial activity against Clostridium tetani MTCC 449 after 24 to 48 hr by broth microdilution method
Assay type: functional

Structure (SMILES) | MIC
Cc1ccc2[nH]c(=O)c(C3NC(=O)NC4=C3C(=O)CCC4)cc2c1 (stereo not given) | 200 µg/mL (≈ 619 µM)
O=C1NC2=C(C(=O)CCC2)C(c2cc3ccccc3[nH]c2=O)N1 (stereo not given) | 100 µg/mL (≈ 323 µM)
COc1ccc2[nH]c(=O)c(C3NC(=O)NC4=C3C(=O)CCC4)cc2c1 (stereo not given) | 500 µg/mL (≈ 1470 µM)
CC1(C)CC(=O)C2=C(C1)N(c1ccccc1)C(=S)NC2c1cc2ccccc2[nH]c1=O (stereo not given) | 250 µg/mL (≈ 582 µM)
CC1(C)CC(=O)C2=C(C1)NC(=O)NC2c1cc2ccccc2[nH]c1=O (stereo not given) | 200 µg/mL (≈ 593 µM)
COc1ccc2[nH]c(=O)c(C3NC(=S)NC4=C3C(=O)CC(C)(C)C4)cc2c1 (stereo not given) | 200 µg/mL (≈ 522 µM)

System: Candida albicans
Assay: Antimicrobial activity against Candida albicans MTCC 227 after 24 to 48 hr by broth microdilution method
Assay type: functional

Structure (SMILES) | MIC
COC1=CC(=O)C[C@@H](C)[C@]12Oc1c(Cl)c(OC)cc(OC)c1C2=O [GRISEOFULVIN] | 500 µg/mL (≈ 1420 µM)
Cc1ccc2[nH]c(=O)c(C3NC(=O)NC4=C3C(=O)CCC4)cc2c1 (stereo not given) | 1000 µg/mL (≈ 3090 µM)
O=C1NC2=C(C(=O)CCC2)C(c2cc3ccccc3[nH]c2=O)N1 (stereo not given) | 500 µg/mL (≈ 1620 µM)
COc1ccc2[nH]c(=O)c(C3NC(=O)NC4=C3C(=O)CCC4)cc2c1 (stereo not given) | 500 µg/mL (≈ 1470 µM)
CC1(C)CC(=O)C2=C(C1)N(c1ccccc1)C(=S)NC2c1cc2ccccc2[nH]c1=O (stereo not given) | 250 µg/mL (≈ 582 µM)
CC1(C)CC(=O)C2=C(C1)NC(=O)NC2c1cc2ccccc2[nH]c1=O (stereo not given) | 500 µg/mL (≈ 1480 µM)
COc1ccc2[nH]c(=O)c(C3NC(=S)NC4=C3C(=O)CC(C)(C)C4)cc2c1 (stereo not given) | 500 µg/mL (≈ 1300 µM)

System: Bacillus subtilis
Assay: Antimicrobial activity against Bacillus subtilis MTCC 441 after 24 to 48 hr by broth microdilution method
Assay type: functional

Structure (SMILES) | MIC
Cc1ccc2[nH]c(=O)c(C3NC(=O)NC4=C3C(=O)CCC4)cc2c1 (stereo not given) | 500 µg/mL (≈ 1550 µM)
O=C1NC2=C(C(=O)CCC2)C(c2cc3ccccc3[nH]c2=O)N1 (stereo not given) | 200 µg/mL (≈ 647 µM)
COc1ccc2[nH]c(=O)c(C3NC(=O)NC4=C3C(=O)CCC4)cc2c1 (stereo not given) | 250 µg/mL (≈ 737 µM)
CC1(C)CC(=O)C2=C(C1)N(c1ccccc1)C(=S)NC2c1cc2ccccc2[nH]c1=O (stereo not given) | 500 µg/mL (≈ 1160 µM)
CC1(C)CC(=O)C2=C(C1)NC(=O)NC2c1cc2ccccc2[nH]c1=O (stereo not given) | 500 µg/mL (≈ 1480 µM)
COc1ccc2[nH]c(=O)c(C3NC(=S)NC4=C3C(=O)CC(C)(C)C4)cc2c1 (stereo not given) | 200 µg/mL (≈ 522 µM)

System: Salmonella typhi
Assay: Antimicrobial activity against Salmonella enterica subsp. enterica serovar Typhi MTCC 98 after 24 to 48 hr by broth microdilution method
Assay type: functional

Structure (SMILES) | MIC
Cc1ccc2[nH]c(=O)c(C3NC(=O)NC4=C3C(=O)CCC4)cc2c1 (stereo not given) | 500 µg/mL (≈ 1550 µM)
O=C1NC2=C(C(=O)CCC2)C(c2cc3ccccc3[nH]c2=O)N1 (stereo not given) | 250 µg/mL (≈ 808 µM)
COc1ccc2[nH]c(=O)c(C3NC(=O)NC4=C3C(=O)CCC4)cc2c1 (stereo not given) | 250 µg/mL (≈ 737 µM)
CC1(C)CC(=O)C2=C(C1)N(c1ccccc1)C(=S)NC2c1cc2ccccc2[nH]c1=O (stereo not given) | 200 µg/mL (≈ 466 µM)
CC1(C)CC(=O)C2=C(C1)NC(=O)NC2c1cc2ccccc2[nH]c1=O (stereo not given) | 250 µg/mL (≈ 741 µM)
COc1ccc2[nH]c(=O)c(C3NC(=S)NC4=C3C(=O)CC(C)(C)C4)cc2c1 (stereo not given) | 250 µg/mL (≈ 652 µM)

System: Streptococcus pneumoniae
Assay: Antimicrobial activity against Streptococcus pneumoniae MTCC 1936 after 24 to 48 hr by broth microdilution method
Assay type: functional

Structure (SMILES) | MIC
Cc1ccc2[nH]c(=O)c(C3NC(=O)NC4=C3C(=O)CCC4)cc2c1 (stereo not given) | 100 µg/mL (≈ 309 µM)
O=C1NC2=C(C(=O)CCC2)C(c2cc3ccccc3[nH]c2=O)N1 (stereo not given) | 100 µg/mL (≈ 323 µM)
COc1ccc2[nH]c(=O)c(C3NC(=O)NC4=C3C(=O)CCC4)cc2c1 (stereo not given) | 250 µg/mL (≈ 737 µM)
CC1(C)CC(=O)C2=C(C1)N(c1ccccc1)C(=S)NC2c1cc2ccccc2[nH]c1=O (stereo not given) | 500 µg/mL (≈ 1160 µM)
CC1(C)CC(=O)C2=C(C1)NC(=O)NC2c1cc2ccccc2[nH]c1=O (stereo not given) | 250 µg/mL (≈ 741 µM)
COc1ccc2[nH]c(=O)c(C3NC(=S)NC4=C3C(=O)CC(C)(C)C4)cc2c1 (stereo not given) | 200 µg/mL (≈ 522 µM)
